In patent US5397796A, “2,4-dioxoimidazolidine compounds and compositions, and processes for administering same” (Cassella AG, priority 1992, dated 1995):
Where two headings read alike, the source gives them in different places.

Tests used:
[1] = biological target: T1, fibrinogen receptor (glycoprotein IIb/IIIa) (Homo sapiens, UniProt P05106+P08514); test: Inhibition of binding of 125I-fibrinogen to its receptor on intact, gel-filtered human platelets; conditions: inhibition of 125I-fibrinogen binding, stimulation with ADP (10 μM), read-out: Ki (μM), ADP-stimulated
T1 construct: endogenous in cells; host or cells: gel-filtered human platelets from donor blood, stimulated with ADP (10 µM)
T1 sequence (P08514 32-887 limits assumed): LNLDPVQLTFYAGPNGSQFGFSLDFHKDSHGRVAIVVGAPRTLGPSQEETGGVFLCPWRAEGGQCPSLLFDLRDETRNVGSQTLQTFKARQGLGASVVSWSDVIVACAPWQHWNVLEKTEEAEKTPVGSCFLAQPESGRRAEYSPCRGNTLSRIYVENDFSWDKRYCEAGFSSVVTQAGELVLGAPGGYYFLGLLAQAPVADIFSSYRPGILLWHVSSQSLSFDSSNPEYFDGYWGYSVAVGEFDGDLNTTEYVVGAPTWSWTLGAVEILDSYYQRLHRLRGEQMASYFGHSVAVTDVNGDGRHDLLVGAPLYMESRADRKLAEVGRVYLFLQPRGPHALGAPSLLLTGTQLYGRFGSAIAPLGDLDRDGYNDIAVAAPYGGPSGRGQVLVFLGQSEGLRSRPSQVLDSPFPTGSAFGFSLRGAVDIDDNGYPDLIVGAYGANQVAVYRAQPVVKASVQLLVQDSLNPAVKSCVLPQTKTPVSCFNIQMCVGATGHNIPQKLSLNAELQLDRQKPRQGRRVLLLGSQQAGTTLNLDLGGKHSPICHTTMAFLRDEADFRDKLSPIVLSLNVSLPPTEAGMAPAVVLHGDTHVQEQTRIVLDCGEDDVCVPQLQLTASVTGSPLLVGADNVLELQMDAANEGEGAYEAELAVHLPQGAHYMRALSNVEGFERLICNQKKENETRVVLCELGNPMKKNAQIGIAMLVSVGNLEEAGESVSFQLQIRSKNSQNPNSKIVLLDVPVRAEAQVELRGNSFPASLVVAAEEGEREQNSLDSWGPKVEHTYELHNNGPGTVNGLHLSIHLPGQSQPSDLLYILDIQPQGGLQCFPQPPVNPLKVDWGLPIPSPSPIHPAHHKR
T1 sequence (P08514 891-1039 partner limits assumed): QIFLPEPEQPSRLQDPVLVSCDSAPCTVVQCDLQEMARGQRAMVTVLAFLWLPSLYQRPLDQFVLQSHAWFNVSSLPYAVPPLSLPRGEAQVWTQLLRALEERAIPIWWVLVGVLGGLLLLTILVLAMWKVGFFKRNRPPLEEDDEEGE
T1 sequence (P05106 27-788): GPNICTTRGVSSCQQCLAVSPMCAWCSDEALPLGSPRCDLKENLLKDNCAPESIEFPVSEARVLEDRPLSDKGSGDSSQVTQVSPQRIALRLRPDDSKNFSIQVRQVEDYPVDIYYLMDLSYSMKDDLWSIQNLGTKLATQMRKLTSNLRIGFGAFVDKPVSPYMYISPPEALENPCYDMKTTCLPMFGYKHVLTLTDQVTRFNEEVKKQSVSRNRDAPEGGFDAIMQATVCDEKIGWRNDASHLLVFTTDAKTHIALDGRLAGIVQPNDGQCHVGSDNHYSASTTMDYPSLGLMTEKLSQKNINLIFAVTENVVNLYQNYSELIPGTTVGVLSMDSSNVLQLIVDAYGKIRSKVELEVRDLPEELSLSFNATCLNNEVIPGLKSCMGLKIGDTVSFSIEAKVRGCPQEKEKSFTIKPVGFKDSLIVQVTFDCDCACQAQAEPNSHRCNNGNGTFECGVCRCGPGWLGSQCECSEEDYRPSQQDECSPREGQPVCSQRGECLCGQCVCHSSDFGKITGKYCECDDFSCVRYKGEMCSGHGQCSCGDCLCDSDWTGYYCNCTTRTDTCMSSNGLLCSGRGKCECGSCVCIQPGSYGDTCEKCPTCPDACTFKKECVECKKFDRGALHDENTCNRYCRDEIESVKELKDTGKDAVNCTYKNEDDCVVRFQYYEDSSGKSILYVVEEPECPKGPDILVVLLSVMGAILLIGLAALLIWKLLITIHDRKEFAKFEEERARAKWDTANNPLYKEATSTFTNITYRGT
Experimental: (§1) The compounds are tested in particular for their inhibitory action in blood platelet aggregation and the adhesion of fibrinogen to blood platelets. Gel-filtered blood platelets from human donor blood are used, which are activated with ADP or thrombin.
The inhibition of the binding of fibrinogen to its receptor (glycoprotein IIb/IIIa) by the compounds according to the invention is tested on intact, gel-filtered human platelets. The Ki value of the inhibition of binding of ^125 I-fibrinogen after stimulation with ADP (10 μM) is given.

[2] = test system: gel-filtered human platelets; test: Inhibition of aggregation of gel-filtered human platelets after ADP or thrombin stimulation; assay type: cell-based
Experimental: as §1
As a functional test, the inhibition of aggregation of gel-filtered human platelets by the compounds according to the invention is measured after ADP or thrombin stimulation. The IC50 value of the inhibition is given.

[3] = Platelet, ADP stimulation, read-out: IC50 (μM), ADP-stimulated
[4] = Platelet, thrombin stimulation, read-out: IC50 (μM), Thrombin-stimulated
[5] = ADP stimulation, read-out: IC50 (μM), ADP-stimulated
[6] = thrombin stimulation, read-out: IC50 (μM), Thrombin-stimulated

| SMILES | Ki [1] | IC50 [2, 3] | IC50 [2, 4] | IC50 [2, 5] | IC50 [2, 6] |
| --- | --- | --- | --- | --- | --- |
| N=C(N)NCCC[C@@H]1NC(=O)N(CC(=O)N[C@@H](CC(=O)O)C(=O)N[C@@H](Cc2ccccc2)C(=O)NCCCCN)C1=O [Example 1, (5-(S)-(3-Guanidinopropyl)-2,4-dioxoimidazolidin-3-yl)acetyl-L-aspartyl-L-phenylalanine (4-aminobutyl) amide acetate] | 2.5 µM | 1.5 µM | 2 µM | – | – |
| N=C(N)NCCC[C@@H]1NC(=O)N(CC(=O)N[C@@H](CC(=O)O)C(=O)N[C@@H](Cc2ccccc2)C(=O)NCCCCCCN)C1=O [Example 2, (5-(S)-(3-Guanidinopropyl)-2,4-dioxoimidazolidin-3-yl)acetyl-L-aspartyl-L-phenylalanine (6-aminohexyl) amide acetate] | 2.44 µM | 3 µM | 3.5 µM | – | – |
| N=C(N)NCCC[C@@H]1NC(=O)N(CC(=O)N[C@@H](CC(=O)O)C(=O)N[C@@H](Cc2ccccc2)C(=O)NCCCCCCCCN)C1=O [Example 3, (5-(S)-(3-Guanidinopropyl)-2,4-dioxoimidazolidin-3-yl)acetyl-L-aspartyl-L-phenylalanine (8-aminooctyl) amide acetate] | 3.21 µM | 5 µM | 3 µM | – | – |
| N=C(N)c1ccc(CC2NC(=O)N(CC(=O)N[C@@H](CC(=O)O)C(=O)N[C@@H](Cc3ccccc3)C(=O)NCCCCN)C2=O)cc1 (stereo partly drawn) [Example 4, (5-(R,S)-(4-Formamidinobenzyl)-2,4-dioxoimidazolidin-3-yl)acetyl-L-aspartyl-L-phenylalanine (4-aminobutyl) amide acetate] | 0.32 µM | – | – | 0.45 µM | 1 µM |
| N=C(N)c1ccc(CC2NC(=O)N(CC(=O)N[C@@H](CC(=O)O)C(=O)N[C@@H](CCCCN)C(=O)NCCCCN)C2=O)cc1 (stereo partly drawn) [Example 7, (5-(R,S)-(4-Formamidino-benzyl)-2,4-dioxoimidazolidin-3-yl)acetyl-L-aspartyl-L-lysine (4-aminobutyl) amide] | 0.17 µM | – | – | 0.25 µM | 0.6 µM |
